This is an account of results in paper PMC5392131 (Current topics in behavioral neurosciences, 2017).

The test system of data set [1] is male Sprague–Dawley rats. Put plainly: Locomotor activity. The note with it: rats undergoing microdialysis; i.v. 3 mg/kg (after 1.0 mg/kg at time zero). The class given is in vivo, rat.
A short description of data set [2]: Plasma pharmacokinetics of MDPV and metabolites after i.p. MDPV administration. Conditions: rat plasma.
The subject of data set [3] is extracellular dopamine in nucleus accumbens. The data set is described as follows: In vivo microdialysis in nucleus accumbens, dialysate dopamine. Conditions: rat nucleus accumbens; i.v. 3 mg/kg (after 1.0 mg/kg at time zero).
Data set [4] concerns DAT. Put plainly: DAT uptake inhibition in rat brain synaptosomes. Conditions: for DAT/SERT ratio: (DAT IC50)^−1/(SERT IC50)^−1, higher values indicate greater DAT selectivity. The format is biochemical.
Data set [5] concerns extracellular dopamine in nucleus accumbens. Conditions: rats, cited from earlier work; for Elevation in extracellular dopamine: i.v. 0.3 mg/kg MDPV, 3.0 mg/kg methylone.
Data set [6] relates to SERT. The data set is described as follows: SERT uptake inhibition in rat brain synaptosomes. The class given is biochemical. Conditions: relative to cocaine.
The test system of data set [7] is male Sprague–Dawley rats. Conditions: cited from earlier work.
The conditions of data set [8]: cited from earlier work.
For data set [9], the system named is CYP 2D6. The note with it: read-out: CYP 2D6 inhibition IC50; in vitro; cited from earlier work.
The test system of data set [10] is NET. Put plainly: NET uptake inhibition in rat brain synaptosomes. The class given is biochemical. Conditions: relative to cocaine.
Data set [11] concerns extracellular 5-HT in nucleus accumbens. Conditions: rats; i.v. 3.0 mg/kg methylone; cited from earlier work.
Data set [12] deals with DAT. Conditions: S-MDPV versus R-MDPV; cited from earlier work.
[13] abbreviates: i.p. MDPV 0.5 mg/kg, mean±SEM, N=6.
Setting [14] is: i.p. MDPV 1.0 mg/kg, mean±SEM, N=6.
Where [15] appears, read: i.p. MDPV 2.0 mg/kg, mean±SEM, N=6.
[16] abbreviates: i.p. MDPV 2.0 mg/kg, mean±SEM, N=6, listed as MPDV.

Where two headings read alike, the source gives them in different places.

Turning to `CCCC(C(=O)c1ccc(O)c(O)c1)N1CCCC1` (centres unmarked) [3,4-Catechol-PV, 3,4-dihydroxypyrovalerone], in data set [1], the Effect on ambulation entry is “no change in ambulation”. The values for the AUC in data set [2] (setting [13]), in data set [2] (setting [14]) and in data set [2] (setting [15]) were 2,822±415 min μg/L, 8,317±589 min μg/L and 12,762±1,625 min μg/L, respectively. Moreover, the highest concentration (Cmax) (as a rule, the maximum level reached in the sampled fluid or tissue) in [2] (setting [13]) was 14 ± 2 µg/L; in data set [2] (setting [14]) it was 36 ± 4 µg/L; in [2] (setting [15]), 46 ± 9 µg/L. Also, the time to peak (Tmax) – broadly, the time from dosing to the highest level – in data set [2] (setting [13]) came to 160 ± 25 min; in [2] (setting [14]), 189 ± 59 min; in data set [2] (setting [15]) it was 206 ± 25 min. Moreover, the “Effect on extracellular dopamine” value in data set [3] is recorded as “small, albeit significant, elevations”.
For `CCCC(C(=O)c1ccc(O)c(OC)c1)N1CCCC1` (centres unmarked) [4-OH-3-MeO-PV, 4-hydroxy-3-methoxypyrovalerone], in [2] (setting [13]), the AUC is listed as 14,657±2,577 min μg/L, the maximum concentration (Cmax) is 57 ± 7 µg/L and the Tmax came to 168 ± 27 min. Moreover, in data set [2] (setting [14]), the AUC is given as 28,168±3,373 min μg/L, the highest concentration (Cmax) is 135 ± 23 µg/L and the Tmax was 260 ± 24 min. In addition, in [2] (setting [15]), the AUC is reported as 51,925±7,946 min μg/L, the Cmax was 198 ± 31 µg/L and the Tmax is 240 ± 54 min. Besides, the DAT/SERT ratio in [4] was over 12.
Take `CC(N)Cc1ccccc1` (centres unmarked) [Amphetamine, reference compound]: the DAT/SERT ratio in data set [4] is given as 36.75.
On the same count and under the same terms, with `COC(=O)[C@H]1[C@@H](OC(=O)c2ccccc2)C[C@@H]2CC[C@H]1N2C` [Cocaine, reference compound] the figure was 1.48.
As to `CCCC(C(=O)c1ccc2c(c1)OCO2)N1CCCC1` (centres unmarked) [MDPV, 3,4-methylenedioxypyrovalerone], the “Elevation in extracellular dopamine” value in [5] is on record as “threefold”. Besides, the “Potency to increase dialysate dopamine compared to cocaine” value in data set [5] (i.v. administration) is given as “tenfold more potent”. For the same compound, the “Potency as inhibitor at SERT compared to cocaine” value in [6] is recorded as “tenfold less potent”. Also, the AUC in data set [2] (setting [13]) is on record as 1,114 min μg/L; in data set [2] (i.p. MDPV 0.5 mg/kg, mean±SEM, N=6, listed as MPDV), 1,114±330 min μg/L; in data set [2] (setting [14]), 2,858±859 min μg/L; in data set [2] (setting [15]) it was 8,726 min μg/L; in data set [2] (setting [16]), 8,726±1,877 min μg/L. For the same compound, the Cmax in [2] (setting [13]) is 20 ± 5 µg/L; in data set [2] (setting [14]), 54 ± 18 µg/L; in data set [2] (setting [15]), 135 ± 29 µg/L; in data set [2] (read-out: Cmax (molar), i.p. MDPV 2 mg/kg), about 500 nM; in [8] (read-out: Plasma Cmax (molar), rat, 2 mg/kg s.c. MDPV) it was about 1000 nM. Further, the Tmax in data set [2] (setting [13]), in [2] (setting [14]) and in [2] (setting [15]) was 10 ± 0 min each time. The t1/2 was determined as 92 ± 7 min in data set [2] (setting [13]), 79 ± 13 min in data set [2] (setting [14]) and 99 ± 14 min in [2] (setting [16]). In addition, the “Time at which Cmax is achieved” value in data set [2] (i.p. MDPV (0.5, 1, 2 mg/kg)) was at most 10 min. Moreover, the DAT/SERT ratio in [4] is on record as 816.82. Besides, in data set [4] (rat brain synaptosomes, relative to cocaine), the “Potency as inhibitor at DAT compared to cocaine” value was found to be 50 fold. Moreover, in data set [7], the “Potency as locomotor stimulant compared to cocaine” value is recorded as “about tenfold more potent”. The “Half-life (t1/2)” value in data set [8] (rat plasma, 2 mg/kg s.c. MDPV) is given as “about 80 min”. In addition, the “Plasma Cmax” value in [8] (rat, 2 mg/kg s.c. MDPV) is 271 µg/L. In addition, the “Time of maximal plasma concentration (Cmax) after injection” value in data set [8] (rat, s.c. MDPV (0.5, 1, 2 mg/kg)) was 15 to 20 min. Also, in data set [9], the IC50 (commonly the concentration needed to halve the response being measured) is 1300 nM. The “Potency as inhibitor at NET compared to cocaine” value in data set [10] is “tenfold more potent”.
As to `CNC(C)C(=O)c1ccc(C)cc1` (centres unmarked) [Mephedrone, 4-methyl-N-methylcathinone, reference compound], the DAT/SERT ratio in data set [4] was 0.55.
For `CNC(C)C(=O)c1ccc2c(c1)OCO2` (centres unmarked) [Methylone, 3,4-methylenedioxy-N-methylcathinone, reference compound], in [5], the “Elevation in extracellular dopamine” value is on record as “threefold”. Further, in data set [4], the DAT/SERT ratio is on record as 0.77. Further, in [11], the “Elevation in extracellular 5-HT” value is listed as “tenfold”.
Regarding `CCC[C@@H](C(=O)c1ccc2c(c1)OCO2)N1CCCC1` [S-MDPV], the “Potency at inhibiting DAT compared to R-MDPV” value in [12] is reported as 100 times.
Regarding `CCC(C(=O)c1ccccc1)N1CCCC1` (stereo not drawn) [α-PBP, α-pyrrolidinobutiophenone], in data set [4], the DAT/SERT ratio was over 159.
On the same count and under the same terms, the figure for `CC(C(=O)c1ccccc1)N1CCCC1` (stereo not drawn) [α-PPP, α-pyrrolidinopropiophenone] is over 50.
Same read-out and setting: the figure for `CCCC(C(=O)c1ccccc1)N1CCCC1` (stereo not drawn) [α-PVP, α-pyrrolidinovalerophenone] is over 833.
